Experimental data reported in US12377112B2, “Methods of treating neurocognitive disorders, chronic pain and reducing inflammation” (priority 2019, dated 2025).
Marks after values point to notes of the source that are not given here.

Tested on: male C57BL/6 mice
Assay: Chronic constriction injury (CCI) model of neuropathic pain, von Frey paw withdrawal threshold
Format: in vivo, mouse
Procedure: To determine whether psilocybin may alleviate chronic neuropathic pain, various doses of psilocybin were tested in a mouse model of chronic constriction injury (CCI).
Male C57BL/6 mice (age 6-7 weeks, source: Charles River UK) were housed in standard caging in groups of 2-4, with free access to food (5CR4, Purina) and water (except during placement in the test box) on a 12/12 light/dark cycle.
All animals underwent behavioral testing of mechanical allodynia on three consecutive days (Day −2, Day−1 and Day 0) prior to surgery in order to determine the baseline withdrawal thresholds. Briefly, Static mechanical (tactile) allodynia was assessed by measurement of withdrawal threshold using calibrated (force; g) von-Frey monofilaments (Touch-Test Sensory Evaluator; Scientific Marketing Associates) applied to the plantar surface of the hind-paw. The animals were placed in individual Perspex boxes on a raised metal mesh for 30-40 minutes before the test. A series of graduated von Frey hairs (0.07, 0.16, 0.4, 0.6 and 1 g) was applied in sequence with a protocol of 1 second on 1 second off, repeated 10 times. Each hair was applied perpendicularly to the center of the ventral surface of the paw until it slightly bends. The force applied to the hind-paw of the animal to induce 5 responses out of 10 trials was recorded as paw withdrawal threshold (PWT). Three baseline paw withdrawal thresholds were taken on ipsilateral paws. The mean of the last two readings used as the baseline withdrawal threshold.
Subsequently, surgery was performed under anesthesia (Isoflurane mixed with oxygen, 3:1, 2 L/min) to tie three loose ligatures of prolene (7-0, Ethicon) around the sciatic nerve, with 1 mm spacing between each. The nerve was then returned below the muscle layer and the wound closed using absorbable sutures (Vicryl).
Following recovery from surgery, Von Frey assessment of mechanical allodynia was taken on days 19 and 22. Animals were then ranked and randomized (based on a Latin square design) to treatment groups according to the percentage change (compared to pre-surgery baseline) of the mean mechanical withdrawal threshold observed on days 19 and 22. Only those animals showing a PWT percentage change of >50% from pre-surgery baseline were included in the study.
On day 23, the animals were dosed with psilocybin (1, 3 or 10 mg/kg by intraperitoneal injection) or vehicle (10 mL/kg by intraperitoneal injection). Nerve pain medication Pregabalin (15 mg/kg administered orally) was also used as a positive control. Allodynia was then assessed at 0.5, 4 and 24 hours post-treatment timepoint (PTT).

In the case of CN(C)CCc1c[nH]c2cccc(OP(=O)(O)O)c12 [Psilocybin, psilocybin], the “Force-induced paw withdrawal, mean” value (1 mg/kg IP group, D19-22 Neuropathic baseline (before dosing)) is reported as 0.16 g, the “Force-induced paw withdrawal, mean” value (1 mg/kg IP group, D-2 D-1 Baseline (before surgery and dosing)) is reported as 0.72 g and the “Force-induced paw withdrawal, mean” value (1 mg/kg IP, D23 0.5 hours PTT) is reported as 0.16 g. For the same compound, the “Force-induced paw withdrawal, mean” value (1 mg/kg IP, D23 4 hours PTT) was 0.16 g, the “Force-induced paw withdrawal, mean” value (1 mg/kg IP, D24 24 hours PTT) was 0.15 g and the “Force-induced paw withdrawal, mean” value (3 mg/kg IP group, D19-22 Neuropathic baseline (before dosing)) was 0.16 g. For the same compound, the “Force-induced paw withdrawal, mean” value (3 mg/kg IP group, D-2 D-1 Baseline (before surgery and dosing)) was 0.68 g, the “Force-induced paw withdrawal, mean” value (3 mg/kg IP, D23 0.5 hours PTT) was 0.22 g and the “Force-induced paw withdrawal, mean” value (3 mg/kg IP, D23 4 hours PTT) was 0.15 g. For the same compound, the “Force-induced paw withdrawal, mean” value (3 mg/kg IP, D24 24 hours PTT) was 0.25 g, the “Force-induced paw withdrawal, mean” value (10 mg/kg IP group, D19-22 Neuropathic baseline (before dosing)) was 0.17 g and the “Force-induced paw withdrawal, mean” value (10 mg/kg IP group, D-2 D-1 Baseline (before surgery and dosing)) was 0.79 g. For the same compound, the “Force-induced paw withdrawal, mean” value (10 mg/kg IP, D23 0.5 hours PTT) was 0.38* g, the “Force-induced paw withdrawal, mean” value (10 mg/kg IP, D23 4 hours PTT) was 0.51* g and the “Force-induced paw withdrawal, mean” value (10 mg/kg IP, D24 24 hours PTT) was 0.25 g.
